Measurements as given in PubChem BioAssay (NCI).
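How tested: cells in 96-well plates exposed to compound for 48 hours at five concentrations. GI50 marks 50% less growth. TGI is the concentration that stops growth completely.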

Experiments:
Test in all cases: DTP human tumour cell line panel, 48 h
[1] = test system: HCT-15 colon
[2] = test system: 786-0 renal
[3] = test system: CAKI-1 renal
[4] = test system: UACC-62 melanoma
[5] = test system: NCI-H522 lung
[6] = test system: OVCAR-4 ovarian
[7] = test system: SR leukemia
[8] = test system: IGROV1 ovarian
[9] = test system: SF-295 CNS
[10] = test system: RPMI-8226 leukemia

| SMILES | TGI [1] | TGI [2] | TGI [3] | TGI [4] | TGI [5] | TGI [6] | TGI [7] | TGI [8] | TGI [9] | TGI [10] | GI50 [1] | GI50 [2] | GI50 [3] | GI50 [4] | GI50 [6] | GI50 [7] | GI50 [8] | GI50 [9] | GI50 [10] | GI50 [5] |
| --- | --- | --- | --- | --- | --- | --- | --- | --- | --- | --- | --- | --- | --- | --- | --- | --- | --- | --- | --- | --- |
| Nc1nc2nc3c(nc2c(=O)[nH]1)CN(c1ccc(C(=O)O)cc1)C3=O | > 100 µM | > 100 µM | > 100 µM | > 100 µM | > 100 µM | > 100 µM | > 100 µM | > 100 µM | > 100 µM | > 100 µM | – | – | – | – | – | – | – | – | – | – |
| COC(=O)C1Cc2c([nH]c3ccccc23)[C@H](CC(C)C)N1 (stereo partly drawn) | – | > 100 µM | – | > 100 µM | > 100 µM | – | > 100 µM | > 100 µM | > 100 µM | > 100 µM | – | – | – | – | – | – | – | – | – | – |
| COc1ccc([C@H]2c3cc(OC)c(OC)cc3C=C(C=O)C2CO)cc1OC (stereo partly drawn) | > 100 µM | > 100 µM | > 100 µM | > 100 µM | – | > 100 µM | > 100 µM | 8.89 µM | 5.85 µM | > 100 µM | 5030 nM | 7150 nM | 3020 nM | 4320 nM | 7940 nM | 4950 nM | 2080 nM | 1790 nM | 9220 nM | – |
| O=C1CCC/C=C\C[C@H]2C=C(Cl)C(=O)/C2=C/C[C@H](CCCCC(F)(F)F)OC(=O)CCC/C=C\C[C@H]2C=C(Cl)C(=O)/C2=C/C[C@H](CCCCC(F)(F)F)O1 | 1.32 µM | 0.475 µM | – | 0.352 µM | 0.384 µM | 3.93 µM | 0.748 µM | 0.791 µM | 1.19 µM | 0.528 µM | 297 nM | 180 nM | – | 149 nM | 240 nM | 198 nM | 231 nM | 292 nM | 177 nM | 166 nM |
| O=C(CC(O)(c1ccccc1)c1ccc(Cl)cc1)NC(=O)c1ccccc1O (stereo not drawn) | 37.5 µM | 44.9 µM | 23.2 µM | 21.3 µM | 14.9 µM | > 100 µM | 39.6 µM | > 100 µM | 26.3 µM | – | – | – | – | – | – | – | – | – | – | – |
| c1ccc([CH2][Sn]([CH2]c2ccccc2)([S]c2cccc3cccnc23)[S]c2cccc3cccnc23)cc1 | 0.476 µM | 1.05 µM | 1.02 µM | 0.496 µM | – | 0.422 µM | – | 0.849 µM | 2.29 µM | – | 200 nM | 314 nM | 420 nM | 211 nM | 172 nM | – | 289 nM | 394 nM | – | – |
| CCCCN(CCCC)C(=Nc1ccccc1)N(CCCC)CCCC | – | 15.2 µM | – | – | 7.41 µM | – | – | 23.1 µM | 23.1 µM | 4.42 µM | – | – | – | – | – | – | – | – | – | – |
| C=CCCc1cc(OC)ccc1CN(C)C(C)(C)CO | > 100 µM | > 100 µM | > 100 µM | > 100 µM | – | > 100 µM | > 100 µM | > 100 µM | > 100 µM | > 100 µM | – | – | – | – | – | – | – | – | – | – |
| Cc1ccc(S(=O)(=O)NCCCN(CCCNS(=O)(=O)c2ccc(C)cc2)S(=O)(=O)c2ccc(C)cc2)cc1 | > 100 µM | > 100 µM | – | > 100 µM | > 100 µM | – | > 100 µM | > 100 µM | > 100 µM | > 100 µM | – | – | – | – | – | – | – | – | – | – |
| COc1ccc(C(=O)O/N=C2\CCCC\C2=C/c2ccccc2)cc1 | > 100 µM | > 100 µM | > 100 µM | > 100 µM | – | 95.8 µM | – | > 100 µM | – | – | – | – | – | – | – | – | – | – | – | – |
| CCCCc1ccc2nc(NC(=O)OC)[nH]c2c1 | > 95.2 µM | 29.3 µM | 12.9 µM | > 59.1 µM | > 68.3 µM | > 69.2 µM | – | > 78.7 µM | 0.475 µM | – | 43.4 nM | 61.3 nM | 31.4 nM | 45.1 nM | 1700 nM | – | 101 nM | 29.9 nM | 33.1 nM | 61.2 nM |
| Cc1c2c(n3c(nc4ccccc43)c1C#N)SCC2 | > 10 µM | > 10 µM | > 10 µM | > 10 µM | – | > 10 µM | > 10 µM | > 10 µM | > 10 µM | > 10 µM | – | – | – | – | – | – | – | – | – | – |
| C=C1C(=O)OC2C1C(OC(=O)/C(=C/C)COC(C)=O)CC1(CO1)C1C(OC(=O)/C(=C/C)CO)C=C(C)C21 (stereo not drawn) | 4.91 µM | 3.09 µM | 2.13 µM | 3.01 µM | – | 7.53 µM | – | 3.82 µM | 20.8 µM | 6.56 µM | – | – | – | – | – | – | – | – | – | – |
| O=C(Nc1nc2ncn(CCOC(=O)c3ccccc3)c2c(=O)[nH]1)c1ccccc1 | > 100 µM | > 100 µM | > 100 µM | > 100 µM | 8.32 µM | – | > 100 µM | > 100 µM | 54.2 µM | > 100 µM | – | – | – | – | – | – | – | – | – | – |
| COc1ccc(CCNc2nc3ccccc3c3[nH]c4ccccc4c23)cc1OC | 10.4 µM | 3.28 µM | 24.8 µM | 26.6 µM | – | 12.8 µM | 7.93 µM | – | 9.02 µM | 5.24 µM | 2860 nM | 1700 nM | 11400 nM | 13000 nM | 3150 nM | 2320 nM | – | 2550 nM | 2180 nM | – |
| CC(=O)Oc1c(-c2ccccc2)[nH]c2cc([N+](=O)[O-])c(/C(Cl)=C/c3ccccc3)cc12 | – | 25.5 µM | 69.2 µM | 19.6 µM | 18.5 µM | 39.3 µM | 27.4 µM | 65.8 µM | 22.5 µM | > 100 µM | – | – | – | – | – | – | – | – | – | – |
| CC/C(=C(\c1ccccc1)c1ccc(OCCN(C)C)cc1)c1ccccc1 | – | – | – | – | – | – | – | – | – | – | 2010 nM | 2960 nM | 3420 nM | 1750 nM | – | 1820 nM | 4440 nM | – | 1200 nM | 1420 nM |
| CC(=O)O[C@@H]1C=CC(=O)C2(CC(=O)O[C@@H]2/C=C(\C)CCC=C(C)C)C1 (stereo partly drawn) | 1.28 µM | 2.26 µM | 2.3 µM | 2.36 µM | – | – | 31.6 µM | 2.47 µM | 4.07 µM | – | 285 nM | 931 nM | 744 nM | 1120 nM | – | 33.9 nM | 965 nM | 1750 nM | – | 988 nM |
| Cc1cc2c(-c3nc4ccccc4[nH]3)c(O)c(O)cc2c(O)c1-c1c(C)cc2c(-c3nc4ccccc4[nH]3)c(O)c(O)cc2c1O | 19.8 µM | 1.01 µM | 0.628 µM | – | 0.878 µM | 16.8 µM | > 50 µM | > 23.1 µM | 1.58 µM | 22.3 µM | 15.6 nM | 80.1 nM | 49.6 nM | – | 38.4 nM | 35 nM | 41.6 nM | 22.7 nM | 32.3 nM | 44.9 nM |
